Results on one molecule are retold here after patent EP4796125A1, “TREATMENT OF PATIENT WITH NEGATIVE P53 GENE MUTATION, POSITIVE KRAS GENE MUTATION AND POSITIVE BRCA MUTATION” (Ascentawits Pharmaceuticals, Ltd., priority 2023, dated 2025).

For one test, the system named is HPAF-II cells. Briefly: Applicant's previous cancer cell proliferation inhibition test. The format is cell-based. The following applies: Homo sapiens, single drug, applicant's previous test data.
Test [1] concerns cell lines and mouse tumor models of BRCA pathogenic mutations. The note with it: in vitro and in vivo pharmacodynamic experiments; data of WO2023174319A; cited from earlier work.
For test [2], the system named is H460 WT (H460 wild-type cells). Briefly: In vitro proliferation under normoxia (CTG, 72 hours), Example 26. The format is cell-based. The note with it: Homo sapiens, NCI-H460, Table 21, AST-3424 alone or + 3 µM AST-3021. As to the method: • 1) H460 cell suspension was added to a 96-well plate (100 µL per well), with a cell density of 2000 cells/well. • 2) The cells were cultured overnight in a 37°C, 5% CO2 incubator. • 3) Compound Treatment
Monotherapy: 24 hours after cell plating, each well was supplemented with 99.5 µL of growth medium. Then, 0.5 µL of test compounds at different concentrations was added. The plate was gently shaken to ensure even mixing, and then placed in a 37°C, 5% CO2 incubator.
Combination therapy: 24 hours after cell plating, each well was supplemented with 99 µL of growth medium. Then, 0.5 µL of the combination compound Nutlin-3 was added. The plate was gently shaken to ensure even mixing, and then placed in an incubator for 2 hours. Then, 0.5 µL of test compounds at different concentrations was added. […]

In general, IC50 refers to the point on the concentration scale where inhibition reaches its midpoint. In the case of `C[C@H](OP(=O)(N1CC1)N1CC1)c1ccc([N+](=O)[O-])c(Oc2cccc(C(=O)N(C)C)c2)c1` [AST-3424], the IC50 in the test with HPAF-II cells worked out at 107 nM; in test [2], 0.23 nM. Besides, in test [1], the “sensitivity of cell lines and mouse tumor models of BRCA pathogenic mutations” value was “more sensitive”.
